Consider 49 molecules from ChEMBL document CHEMBL1146011, “Diaryl substituted pyrrolidinones and pyrrolones as 5-HT2C inhibitors: synthesis and biological evaluation” (Bioorg Med Chem Lett, 2006).

In assay [1] the target is T1, 5-hydroxytryptamine receptor 2C (Homo sapiens, UniProt P28335).
T1 sequence (P28335 whole entry): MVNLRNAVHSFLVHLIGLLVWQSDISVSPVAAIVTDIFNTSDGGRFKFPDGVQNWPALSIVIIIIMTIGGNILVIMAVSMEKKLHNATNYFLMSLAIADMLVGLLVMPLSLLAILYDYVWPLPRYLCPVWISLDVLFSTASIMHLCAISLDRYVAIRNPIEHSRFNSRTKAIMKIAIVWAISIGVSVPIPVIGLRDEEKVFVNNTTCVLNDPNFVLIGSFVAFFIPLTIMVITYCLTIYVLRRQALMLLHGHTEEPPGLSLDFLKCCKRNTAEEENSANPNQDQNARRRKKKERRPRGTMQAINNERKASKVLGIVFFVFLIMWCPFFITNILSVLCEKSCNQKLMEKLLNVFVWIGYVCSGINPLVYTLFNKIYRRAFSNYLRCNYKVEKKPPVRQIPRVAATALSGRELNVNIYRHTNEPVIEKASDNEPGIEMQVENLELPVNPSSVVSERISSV
The assay can be described thus: Binding affinity to human 5HT2C receptor.

Assay [2] has as its target 5-hydroxytryptamine receptor 2A (Homo sapiens, UniProt P28223). The experiment in a line: Binding affinity to human 5HT2A receptor.
Assay [3] has as its target 5-hydroxytryptamine receptor 2B (Homo sapiens, UniProt P41595). The assay can be described thus: Binding affinity to human 5HT2B receptor.

Sequence of 5-hydroxytryptamine receptor 2A (P28223 whole entry): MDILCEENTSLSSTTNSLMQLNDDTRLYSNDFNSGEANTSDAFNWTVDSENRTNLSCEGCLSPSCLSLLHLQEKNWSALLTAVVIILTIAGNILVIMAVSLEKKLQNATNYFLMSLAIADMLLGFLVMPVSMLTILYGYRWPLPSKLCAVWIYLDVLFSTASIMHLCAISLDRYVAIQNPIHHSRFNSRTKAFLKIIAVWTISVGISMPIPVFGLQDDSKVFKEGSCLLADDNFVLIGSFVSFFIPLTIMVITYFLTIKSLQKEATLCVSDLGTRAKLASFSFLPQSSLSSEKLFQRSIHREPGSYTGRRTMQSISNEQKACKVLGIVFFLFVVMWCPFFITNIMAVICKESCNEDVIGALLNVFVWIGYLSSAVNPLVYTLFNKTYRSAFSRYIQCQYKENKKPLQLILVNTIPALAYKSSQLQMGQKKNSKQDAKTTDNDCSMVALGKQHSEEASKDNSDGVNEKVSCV
Sequence of 5-hydroxytryptamine receptor 2B (P41595 whole entry): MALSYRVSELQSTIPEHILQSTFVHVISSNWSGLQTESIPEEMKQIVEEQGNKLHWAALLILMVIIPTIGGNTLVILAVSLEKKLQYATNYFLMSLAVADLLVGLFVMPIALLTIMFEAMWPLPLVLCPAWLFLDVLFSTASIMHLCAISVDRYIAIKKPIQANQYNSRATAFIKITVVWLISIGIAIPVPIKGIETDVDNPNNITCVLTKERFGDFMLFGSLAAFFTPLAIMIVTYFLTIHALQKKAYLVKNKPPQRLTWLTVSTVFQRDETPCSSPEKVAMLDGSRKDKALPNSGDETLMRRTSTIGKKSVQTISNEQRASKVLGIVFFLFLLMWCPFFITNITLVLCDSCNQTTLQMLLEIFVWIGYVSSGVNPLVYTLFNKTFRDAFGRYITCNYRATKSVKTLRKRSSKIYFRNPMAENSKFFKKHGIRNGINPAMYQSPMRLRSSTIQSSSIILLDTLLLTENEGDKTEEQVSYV

As a reminder, the Ki is the equilibrium dissociation constant of an inhibitor or competing ligand from its target. A lower Ki goes with higher affinity. As to `COc1ccc(N2CC=C(c3cccc(Cl)c3)C2=O)cc1OCCN1CCC(C)CC1`, the Ki in assay [1] is 5.01 nM; in assay [2], 794 nM; in assay [3], 501 nM.
On to `CC(=O)Nc1ccc(N2CCC(c3ccc(Cl)c(Cl)c3)C2=O)cc1OCCN1CCCCC1` (configuration not stated), for which the Ki is 316 nM in assay [1], above 3160 nM in assay [2] and above 1580 nM in assay [3].
For `COc1ccc(C2CCN(c3ccc(Cl)c(Cl)c3)C2=O)cc1OCCN1CCCCC1` (configuration not stated), the inhibition constant Ki was 10 nM in assay [1], 794 nM in assay [2] and 398 nM in assay [3].
In the same order, the values of `COc1ccc(N2CC=C(c3ccc(C)cc3)C2=O)cc1OCCN1CCCCC1` are 0.316 nM, above 1000 nM and above 1000 nM.
In the same order, the values of `COc1ccc(N2CC=C(c3ccc(Cl)c(Cl)c3)C2=O)cc1OCCN1CCC(C)(C)CC1` are 3.98 nM, above 6310 nM and 316 nM.
Regarding `COc1ccc(N2CC=C(c3ccc(C(F)(F)F)cc3)C2=O)cc1OCCN1CCCCC1`, the Ki in assay [1] is 12.6 nM; in assay [2], above 1260 nM; in assay [3] it was above 1000 nM.
On to `COc1ccc(N2CC=C(c3ccc(Br)cc3)C2=O)cc1OCCN1CCCCC1`, for which the Ki is 1.26 nM in assay [1], 158 nM in assay [2] and 200 nM in assay [3].
In the same order, the values of `COc1ccc(C2=C(C)CN(c3ccc(Cl)c(Cl)c3)C2=O)cc1OCCN1CCCCC1` are 126 nM, 501 nM and 200 nM.
In the same order, the values of `CC(=O)Nc1ccc(N2CC=C(c3ccc(Cl)c(Cl)c3)C2=O)cc1OCCN1CCCCC1` are 50.1 nM, above 1580 nM and above 1580 nM.
For `COc1ccc(C2=CCN(c3cccc(F)c3)C2=O)cc1OCCN1CCCCC1`, the Ki in assay [1] was 6.31 nM; in assay [2], 1000 nM; in assay [3], 501 nM.
As to `COc1ccc(N2CCC(c3ccc(Cl)c(Cl)c3)C2=O)cc1OCCN1CCC(C(C)C)CC1` (configuration not stated), the results for the inhibitory constant (Ki) in assay [1], in assay [2] and in assay [3] were 25.1 nM, 398 nM and above 1000 nM, respectively.
In the same order, the values of `COc1ccc(N2CC=C(c3ccc(Cl)c(Cl)c3)C2=O)cc1OCCN1CCC(C(C)C)CC1` are 12.6 nM, above 794 nM and above 1000 nM.
For the molecule `O=C1C(c2ccc(Cl)c(Cl)c2)=CCN1c1ccc(N2CCCC2)c(OCCN2CCCCC2)c1`, the inhibitory constant (Ki) in assay [1] is 200 nM; in assay [2], above 1260 nM; in assay [3] it was above 10000 nM.
For `COc1ccc(N2CC=C(c3ccc(F)cc3)C2=O)cc1OCCN1CCCCC1`, in that order: 6.31 nM, 398 nM and 1000 nM.
Take `COc1ccc(N2CC=C(c3ccc(Cl)cc3)C2=O)cc1OCCN1CCC(C)CC1`: the figures for the Ki in assay [1], in assay [2] and in assay [3] were 6.31 nM, 631 nM and above 1580 nM, respectively.
In the same order, the values of `COc1ccc(N2CCC(c3ccc(OC)c(OCCN4CCCCC4)c3)C2=O)cc1Cl` (configuration not stated) are 20 nM, above 2000 nM and 1580 nM.
In the case of `COc1ccc(N2CC=C(c3ccc(OC)c(OCCN4CCCCC4)c3)C2=O)cc1F`, the Ki was 6.31 nM in assay [1], above 3160 nM in assay [2] and above 1580 nM in assay [3].
In the same order, the values of `COc1ccc(N2CCC(c3ccc(Cl)c(Cl)c3)C2=O)cc1OCCN1CCC(C)CC1` (configuration not stated) are 12.6 nM, 398 nM and 2000 nM.
Consider `COc1ccc(N2CCC(c3cccc(F)c3)C2=O)cc1OCCN1CCCCC1` (configuration not stated), for which the Ki in assay [1] is 100 nM; in assay [2] it was above 7940 nM; in assay [3], above 1580 nM.
Turning to `COc1ccc(N2CC=C(c3ccc(OC)c(OCCN4CCCCC4)c3)C2=O)cc1Cl`, the Ki in assay [1] was 5.01 nM; in assay [2], above 6310 nM. Moreover, the Log Ki in assay [3] was above -6.4.
Consider `COc1ccc(C2CCN(c3cccc(F)c3)C2=O)cc1OCCN1CCCCC1` (configuration not stated), for which the values for the Ki in assay [1], in assay [2] and in assay [3] were 20 nM, above 1260 nM and above 794 nM, respectively.
In the same order, the values of `COc1ccc(N2CC=C(c3cccc(C(F)(F)F)c3)C2=O)cc1OCCN1CCCCC1` are 5.01 nM, 794 nM and above 794 nM.
For `COc1ccc(N2CCC(c3ccc(OC)c(OCCN4CCCCC4)c3)C2=O)cc1` (configuration not stated), in that order: 100 nM, above 10000 nM and above 10000 nM.
As to `COc1ccc(N2CCC(c3ccc(Cl)c(Cl)c3)C2=O)cc1OCCN1CCC(C)(C)CC1` (configuration not stated), the Ki in assay [1] is 12.6 nM; in assay [2], 398 nM; in assay [3], above 1000 nM.
For `COc1ccc(N2CC=C(c3ccc(OC)c(OCCN4CCCCC4)c3)C2=O)cc1`, in that order: 10 nM, above 5010 nM and above 2000 nM.
Consider `COc1ccc(N2CC=C(c3cccc(F)c3)C2=O)cc1OCCN1CCCCC1`, for which the Ki was 0.794 nM in assay [1], 631 nM in assay [2] and 501 nM in assay [3].
In the same order, the values of `COc1ccc(N2CC=C(c3ccc(Cl)c(Cl)c3)C2=O)cc1OCCN1CCC(F)(F)CC1` are 7.94 nM, above 5010 nM and above 5010 nM.
In the same order, the values of `COc1ccc(N2CC=C(c3ccc(Cl)cc3)C2=O)cc1OCCN1CCCCC1` are 7.94 nM, 1000 nM and above 1580 nM.
As for `COc1ccc(N2CCC(c3ccc(F)cc3)C2=O)cc1OCCN1CCCCC1` (configuration not stated), the Ki in assay [1] was 100 nM; in assay [2], above 2510 nM; in assay [3] it was above 5010 nM.
As for `Cc1ccc(N2CCC(c3ccc(Cl)c(Cl)c3)C2=O)cc1OCCN1CCCCC1` (configuration not stated), the Ki is 398 nM in assay [1], above 1580 nM in assay [2] and above 1580 nM in assay [3].
For the molecule `COc1ccc(N2CC=C(c3ccc(Br)cc3)C2=O)cc1OCCN1CCC(C)CC1`, the Ki in assay [1] was 3.98 nM; in assay [2], 398 nM. In assay [3], the Log Ki is above -6.2.
For the molecule `O=C1C(c2ccc(Cl)c(Cl)c2)CCN1c1ccc(OC(F)(F)F)c(OCCN2CCCCC2)c1` (configuration not stated), the Ki in assay [1] was 794 nM; in assay [2] it was 3160 nM; in assay [3], 1580 nM.
In the case of `COc1ccc(N2CCC(c3cccc(Cl)c3)C2=O)cc1OCCN1CCCCC1` (configuration not stated), the Ki in assay [1] is 25.1 nM; in assay [2] it was above 1000 nM; in assay [3], above 1000 nM.
On to `O=C1C(c2ccc(Cl)c(Cl)c2)CCN1c1ccc(Cl)c(OCCN2CCCCC2)c1` (configuration not stated), for which the inhibitory constant (Ki) in assay [1] is 100 nM; in assay [2], above 1000 nM; in assay [3], above 1580 nM.
On to `O=C1C(c2ccc(Cl)c(Cl)c2)=CCN1c1ccc(OC(F)(F)F)c(OCCN2CCCCC2)c1`, for which the Ki was above 1260 nM in assay [1], above 10000 nM in assay [2] and above 3160 nM in assay [3].
Take `COc1ccc(N2CC=C(c3ccc(Cl)c(Cl)c3)C2=O)cc1OCCN1CCOCC1`: the Ki in assay [1] is 6.31 nM; in assay [2], 3980 nM; in assay [3], above 1580 nM.
On to `COc1ccc(N2CC=C(c3ccc(Cl)c(Cl)c3)C2=O)cc1OCCN1CCCC1`, for which the values for the Ki in assay [1], in assay [2] and in assay [3] were 3.98 nM, 631 nM and above 1580 nM, respectively.
In the same order, the values of `COc1ccc(N2CC=C(c3ccc(F)cc3)C2=O)cc1OCCN1CCC(C)CC1` are 3.16 nM, 251 nM and 1260 nM.
Turning to `COc1ccc(N2CC=C(c3ccc(C(F)(F)F)cc3)C2=O)cc1OCCN1CCC(C)CC1`, the figures for the inhibition constant (Ki) in assay [1], in assay [2] and in assay [3] were 12.6 nM, 1580 nM and above 10000 nM, respectively.
Turning to `O=C1C(c2ccc(Cl)c(Cl)c2)=CCN1c1ccc(Cl)c(OCCN2CCCCC2)c1`, the inhibition constant (Ki) in assay [1] is 63.1 nM; in assay [2], above 1260 nM; in assay [3], above 1580 nM.
For `COc1ccc(N2CC=C(c3ccc(Cl)c(F)c3)C2=O)cc1OCCN1CCC(C)CC1`, in that order: 7.94 nM, above 1260 nM and above 2000 nM.
For `COc1ccc(N2CCC(c3ccc(Cl)c(Cl)c3)C2=O)cc1OCCN1CCCCC1` (configuration not stated), in that order: 12.6 nM, 501 nM and 1580 nM.
On to `COc1ccc(C2(C)CCN(c3ccc(Cl)c(Cl)c3)C2=O)cc1OCCN1CCCCC1` (configuration not stated), for which the Ki in assay [1] is 10 nM; in assay [2], 501 nM. In assay [3], this molecule registered a Log Ki above -6.3.
As to `Cc1ccc(N2CC=C(c3ccc(Cl)c(Cl)c3)C2=O)cc1OCCN1CCCCC1`, the Ki in assay [1] is 126 nM; in assay [2] it was above 1260 nM; in assay [3] it was above 2000 nM.
For `COc1ccc(C2=C(C)CN(c3ccc(Cl)cc3)C2=O)cc1OCCN1CCCCC1`, the inhibitory constant (Ki) in assay [1] was 200 nM; in assay [2], 398 nM; in assay [3], 501 nM.
In the same order, the values of `COc1ccc(N2CCC(c3ccc(OC)c(OCCN4CCCCC4)c3)C2=O)cc1F` (configuration not stated) are 15.8 nM, above 1000 nM and above 1580 nM.
In the same order, the values of `COc1ccc(N2CC=C(c3cccc(Cl)c3)C2=O)cc1OCCN1CCCCC1` are 2.51 nM, 631 nM and 631 nM.
In the same order, the values of `COc1ccc(C2=CCN(c3ccc(Cl)c(Cl)c3)C2=O)cc1OCCN1CCCCC1` are 5.01 nM, 1260 nM and 126 nM.
`COc1ccc(N2CC=C(c3ccc(C)cc3)C2=O)cc1OCCN1CCC(C)CC1`: the Ki is 1.58 nM in assay [1], 631 nM in assay [2] and 1580 nM in assay [3].
